Tests used:
[1] = biological target: T1, TRPA1 (Rattus norvegicus, UniProt Q6RI86); assay: Whole-cell patch-clamp of TRPA1-expressing HEK293 cells; format: cell-based; details: for Response relative to the full agonist AITC: AITC 1 mM
T1 construct: expressed in transfected cells; host or cells: HEK 293F
Experimental: (§1) Electrophysiology. […] Whole-cell and single-channel patch-clamp recordings were performed by using an EPC8 amplifier (HEKA Electronics). For whole-cell and excised patch recordings the bath solution contained 140 mMNaCl, 4 mMKCl, 1 mMMgCl2, 1.2 mMCaCl2, 10 mMHepes, 10 mM glucose, pH 7.3. For cell-attached experiments, NaCl was replaced with KCl in the bath solution. […] For neuronal recording NaCl was replaced with K-gluconate (plus 1 mMATP, 0.2 mM GTP). Solutions were applied via a gravity-fed system. […] Voltage-dependent properties were measured as described in Matt and Ahern, J. Physiol. […] The baseline currents under control conditions were subtracted. For cell-attached experiments, peak amplitudes were measured from all-points histograms, and open probability was measured as NPo>750 ms. Defolliculated Xenopus laevis oocytes were injected with ≈10 ng of hTRPA1 (gift of Ardem Patapoutian, The Scripps Research Institute, La Jolla, Calif.).
Volatile General Anesthetics and Chemicals. Saturated stock solutions of volatile GAs were prepared in gas-tight bottles by dissolving excess anesthetic agents in bath solutions overnight. From these stock solutions fresh dilutions were made up every 40-60 min. Concentrations of GAs in the bath solutions were verified by using a modified head-space gas chromatography method. […] Alcohols with <6 carbons were dissolved directly into extracellular solution, and alcohols containing 6 carbons or more were dissolved in DMSO and then diluted into extracellular solutions that were sonicated for 20 min. All other drugs were prepared as stock solutions in DMSO or ethanol and diluted into physiological solution before experiments.

[2] = biological target: T2, TRPM8 (Rattus norvegicus, UniProt Q8R455); assay: Whole-cell patch-clamp of TRPM8-expressing HEK293 cells; format: cell-based; details: 100 μM
T2 construct: expressed in transfected cells; host or cells: HEK 293F
T2 sequence (Q8R455 whole entry): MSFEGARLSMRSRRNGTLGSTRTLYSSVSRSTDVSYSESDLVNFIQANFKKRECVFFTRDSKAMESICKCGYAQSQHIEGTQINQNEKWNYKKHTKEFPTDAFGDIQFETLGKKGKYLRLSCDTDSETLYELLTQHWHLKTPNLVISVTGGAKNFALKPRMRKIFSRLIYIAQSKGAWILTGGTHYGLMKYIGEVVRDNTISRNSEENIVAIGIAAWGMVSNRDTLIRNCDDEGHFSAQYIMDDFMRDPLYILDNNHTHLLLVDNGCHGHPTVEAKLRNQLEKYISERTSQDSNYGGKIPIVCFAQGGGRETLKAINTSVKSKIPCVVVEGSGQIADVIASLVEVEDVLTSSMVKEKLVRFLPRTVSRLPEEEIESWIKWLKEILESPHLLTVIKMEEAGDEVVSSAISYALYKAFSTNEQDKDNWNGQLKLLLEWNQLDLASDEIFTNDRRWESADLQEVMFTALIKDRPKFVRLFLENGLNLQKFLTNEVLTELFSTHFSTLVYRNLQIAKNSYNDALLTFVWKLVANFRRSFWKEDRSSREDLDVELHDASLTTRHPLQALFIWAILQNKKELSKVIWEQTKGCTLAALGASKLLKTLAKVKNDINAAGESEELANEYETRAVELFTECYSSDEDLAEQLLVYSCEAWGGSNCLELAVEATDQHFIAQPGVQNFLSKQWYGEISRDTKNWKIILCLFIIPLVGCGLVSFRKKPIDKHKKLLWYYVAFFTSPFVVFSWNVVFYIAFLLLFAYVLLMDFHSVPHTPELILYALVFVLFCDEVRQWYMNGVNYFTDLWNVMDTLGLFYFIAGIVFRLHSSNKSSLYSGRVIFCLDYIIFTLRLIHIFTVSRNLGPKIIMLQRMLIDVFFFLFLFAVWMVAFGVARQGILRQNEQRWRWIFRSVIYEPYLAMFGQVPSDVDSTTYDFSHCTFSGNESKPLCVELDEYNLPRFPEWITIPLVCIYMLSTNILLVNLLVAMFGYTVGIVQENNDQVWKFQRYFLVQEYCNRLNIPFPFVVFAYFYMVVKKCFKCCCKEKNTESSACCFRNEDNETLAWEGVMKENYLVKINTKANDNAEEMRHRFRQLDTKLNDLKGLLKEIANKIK
Experimental: as §1

[3] = biological target: T1, TRPA1; assay: Single-channel recordings of TRPA1 (outside-out / cell-attached patches); format: cell-based
Experimental: (§2) Electrophysiology. HEK 293F cells were transfected with rat TRPV1, TRPA1, and TRPM8 (gift of David Julius, University of California, San Francisco). Dorsal root ganglia were cultured from adult mice (C57B16/J wild type and TRPV1-null, and mixed B6/129 background TRPA1-null) in Neurobasal +2% B-27 medium (Invitrogen), 0.1% L-glutamine and 1% penicillin/streptomycin. Whole-cell and single-channel patch-clamp recordings were performed by using an EPC8 amplifier (HEKA Electronics). For whole-cell and excised patch recordings the bath solution contained 140 mMNaCl, 4 mMKCl, 1 mMMgCl2, 1.2 mMCaCl2, 10 mMHepes, 10 mM glucose, pH 7.3. For cell-attached experiments, NaCl was replaced with KCl in the bath solution. The pipette solution contained 140 mM NaCl or KCl, 10 mM Hepes, 5 mM EGTA, pH 7.3. For neuronal recording NaCl was replaced with K-gluconate (plus 1 mMATP, 0.2 mM GTP). Solutions were applied via a gravity-fed system. Separate outlets were used to apply capsaicin and AITC solutions to avoid contamination. Voltage-dependent properties were measured as described in Matt and Ahern, J. Physiol. 585:469-482 (2007). Current-voltage measurements comprised a 200-ms ramp from −150 mV to +200 mV. The baseline currents under control conditions were subtracted. For cell-attached experiments, peak amplitudes were measured from all-points histograms, and open probability was measured as NPo>750 ms. Defolliculated Xenopus laevis oocytes were injected with ≈10 ng of hTRPA1 (gift of Ardem Patapoutian, The Scripps Research Institute, La Jolla, Calif.). Oocytes were placed in a Perspex chamber and continuously superfused (5 ml min^−1) with Ca^2+-free solution containing 100 mM NaCl, 2.5 mM KCl, 5 mM Hepes, 1 mM MgC12 and titrated to pH 7.3 with ˜5 mM NaOH.

[4] = test system: AITC-sensitive DRG neurons; assay: Voltage- and current-clamp of DRG sensory neurons; format: cell-based, mouse; details: 100 μM
Experimental: as §2

[5] = test system: DRG neurons; assay: Ca2+ imaging in DRG neurons from wild-type mice; format: cell-based, mouse; details: propofol 100 μM
Experimental: (§3) Ca^2+ Imaging. Neurons were loaded with 1 μM Fluo4-AM (Molecular Probes) for 20 min and washed for a further 10-20 min before recording. The dye was excited at 488±15 nm. Emitted fluorescence was filtered with a 535±25 nm bandpass filter, captured by a SPOT RT digital camera (Diagnostic Instruments) and read into a computer. Analysis was performed offline by using Simple PCI software (Compix Inc.).

[6] = test system: DRG neurons from TRPA1-null mice; assay: Ca2+ imaging in DRG neurons from TRPA1-null mice; format: cell-based, mouse; details: desflurane n=125, propofol n=120
Experimental: as §3

[7] = test system: mice; assay: Nocifensive behavior after topical application to the nasal epithelium; format: in vivo, mouse
Experimental: (§4) Behavioral Experiments and Neurogenic Inflammation. Animal experiments were performed according to National Institutes of Health and institutional guidelines. […] Nocifensive behavior (nose wiping in sawdust bedding) was recorded for 2 min with a video camera and the duration was subsequently measured by a blinded observer. […] Electromyographic (EMG) activity was recorded via platinum electrodes from the semitendinosus muscle in mice anesthetized with urethane (1.3 g/kg) as described in Ando and Watanabe, Br J. Anaesth. […] The EMG signal was recorded by using a low-pass cutoff frequency of 200 Hz and integrated offline by using a 100-ms time window. […] Ear thickness was recorded by using an engineer's micrometer (Mitutoyo Corp.) before mustard-oil application and thereafter every 15 min for 60 min of anesthesia and 60 min of recovery.

[8] = test system: mice; assay: Flexor reflex response (EMG of semitendinosus muscle) after femoral artery injection; format: in vivo, mouse; details: propofol 500 μM, capsaicin 50 μM
Experimental: as §4

[9] = biological target: TRPV1 (Rattus norvegicus, UniProt O35433); assay: Whole-cell patch-clamp of TRPV1-expressing HEK293 cells; format: cell-based; parameters: expressed in transfected cells; host or cells: HEK 293F (Invitrogen), co-transfected with GFP cDNA; details: 100 μM
Chain of TRPV1 (O35433 whole entry): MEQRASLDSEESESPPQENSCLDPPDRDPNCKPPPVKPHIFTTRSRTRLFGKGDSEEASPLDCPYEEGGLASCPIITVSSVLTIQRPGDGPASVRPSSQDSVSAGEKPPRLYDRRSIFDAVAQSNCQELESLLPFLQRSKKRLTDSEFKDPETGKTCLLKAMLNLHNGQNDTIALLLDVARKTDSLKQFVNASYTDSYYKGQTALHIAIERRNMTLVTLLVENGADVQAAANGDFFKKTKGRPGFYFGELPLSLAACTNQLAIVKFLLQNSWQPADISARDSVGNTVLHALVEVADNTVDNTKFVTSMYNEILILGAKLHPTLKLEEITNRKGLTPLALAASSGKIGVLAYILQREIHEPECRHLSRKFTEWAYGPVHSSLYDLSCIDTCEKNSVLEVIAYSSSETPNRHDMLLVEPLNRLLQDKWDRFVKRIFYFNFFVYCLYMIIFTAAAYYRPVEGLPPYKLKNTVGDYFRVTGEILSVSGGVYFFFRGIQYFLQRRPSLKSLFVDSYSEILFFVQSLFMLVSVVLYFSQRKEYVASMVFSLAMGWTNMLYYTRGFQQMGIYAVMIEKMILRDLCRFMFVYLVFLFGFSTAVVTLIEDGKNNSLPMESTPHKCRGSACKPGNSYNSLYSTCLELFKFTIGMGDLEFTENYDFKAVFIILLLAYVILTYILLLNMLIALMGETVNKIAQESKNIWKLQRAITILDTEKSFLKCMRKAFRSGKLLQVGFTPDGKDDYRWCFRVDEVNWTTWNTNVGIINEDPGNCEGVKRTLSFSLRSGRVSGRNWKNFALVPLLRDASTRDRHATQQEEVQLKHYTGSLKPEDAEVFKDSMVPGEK
Experimental: as §1
HEK cell and sensory neuron electrophysiology. […] Cell cultures were maintained at 37° C. with 5% CO2. Cells were transfected with rat TRPV 1 (gift of David Julius), and GFP cDNA using Lipofectamine™ Transfection Reagent (Invitrogen) and used 24-48 h after transfection. Nodose ganglia were obtained from adult mice (C57B16/J and TRPV1-null), cut, digested with collagenase, and cultured in Neurobasal +2% B-27 medium (Invitrogen), 0.1% L-glutamine and 1% penicillin/streptomycin on poly-D lysine-coated glass coverslips at 37° C. in 5% CO2. Neurons were used within 24-36 hr of culture. Whole-cell and single-channel patch clamp recordings were performed using an EPC8 amplifier (HEKA). The current signal was low-pass filtered at 1-3 kHz and sampled at 4 kHz. Currents were further filtered for display purposes. For whole-cell and excised patch recordings the bath solution contained (in mM): 140 NaCl, 4 KCl, 1 MgCl2, 1 EGTA, 10 HEPES, 10 glucose pH 7.3 (290 mOsm). The pipette solution contained (in mM): 140 CsC1, 10 NaCl, 10 HEPES, 5 EGTA, 2 Mg ATP and 0.03 GTP, pH 7.3. The peak amplitudes measured either during the prepulse or the tail current (within 1 ms) were plotted as a function of the test potential and normalized to the maximal current obtained from the following Boltzmann function: […]

T1 sequence (Q6RI86 whole entry): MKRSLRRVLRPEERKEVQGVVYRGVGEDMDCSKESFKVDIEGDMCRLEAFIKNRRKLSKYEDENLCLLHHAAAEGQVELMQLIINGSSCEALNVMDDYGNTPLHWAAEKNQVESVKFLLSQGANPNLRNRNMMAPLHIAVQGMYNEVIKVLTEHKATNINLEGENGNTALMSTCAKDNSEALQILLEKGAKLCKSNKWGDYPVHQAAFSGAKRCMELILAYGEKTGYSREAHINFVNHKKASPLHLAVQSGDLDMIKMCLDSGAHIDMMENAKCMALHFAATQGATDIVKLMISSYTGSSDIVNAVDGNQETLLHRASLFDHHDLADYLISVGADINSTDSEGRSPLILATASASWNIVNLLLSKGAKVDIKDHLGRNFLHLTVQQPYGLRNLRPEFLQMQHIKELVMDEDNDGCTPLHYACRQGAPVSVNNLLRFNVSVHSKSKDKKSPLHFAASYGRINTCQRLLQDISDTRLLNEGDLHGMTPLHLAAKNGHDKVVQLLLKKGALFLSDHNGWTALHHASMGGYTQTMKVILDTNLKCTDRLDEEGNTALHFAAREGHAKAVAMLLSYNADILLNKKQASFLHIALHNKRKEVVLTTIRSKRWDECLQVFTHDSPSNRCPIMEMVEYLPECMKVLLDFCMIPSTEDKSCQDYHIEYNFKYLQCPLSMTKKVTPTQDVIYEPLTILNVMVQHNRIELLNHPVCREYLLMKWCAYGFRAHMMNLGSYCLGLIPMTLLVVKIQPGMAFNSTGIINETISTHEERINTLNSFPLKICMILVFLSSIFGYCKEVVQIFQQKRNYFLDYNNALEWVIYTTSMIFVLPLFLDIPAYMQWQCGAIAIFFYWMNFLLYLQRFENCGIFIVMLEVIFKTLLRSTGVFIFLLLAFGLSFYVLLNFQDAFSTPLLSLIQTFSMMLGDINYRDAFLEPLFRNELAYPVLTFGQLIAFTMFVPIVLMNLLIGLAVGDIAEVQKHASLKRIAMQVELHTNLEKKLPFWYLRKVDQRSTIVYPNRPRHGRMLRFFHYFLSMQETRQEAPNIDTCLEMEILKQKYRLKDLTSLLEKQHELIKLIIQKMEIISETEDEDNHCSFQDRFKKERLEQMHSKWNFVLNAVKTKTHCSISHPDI

CC(C)c1cccc(C(C)C)c1O [propofol]
Activation of TRPA1 by i.v. GAs ([1]; 100 μM, membrane potential −50 mV): robust activation | Concentration range of TRPA1 activation ([1]; FIG. 2D): 1 to 100 µM | Response relative to the full agonist AITC ([1]; at +200 my): ~38% | Response relative to the full agonist AITC ([1]; at −150 mV): ≈ 8% | Co-application with octanol at TRPA1 ([1]; propofol 100 μM + octanol 1.8 mM): additive response | Change in V1/2 of TRPM8 (ΔV1/2, increase) ([2]; n=5-6): 1.7 mV | Effect of i.v. GAs on TRPM8 channels ([2]; −50 mV): without effect | TRPA1 unitary conductance in presence of propofol ([3]; 100 μM, outside-out patch, Vm +40 mV, decrease from 108 pS): 94 pS | Single TRPA1 channel activity ([3]; cell-free patches): increased TRPA1 activity and reduced the unitary conductance | Inward currents in AITC-sensitive DRG neurons ([4]; n=6): inward currents were also observed | Membrane potential under current clamp ([4]; elicits action potentials): depolarized | Cells with dual sensitivity to propofol and AITC [5]: ≈ 30% | Ca2+ responses in neurons from TRPA1-null mice [6]: no responses | Duration of nocifensive response ([7]; TRPA1+/− littermates, propofol 50% topical): ≈ 35 s | Nocifensive behavior in TRPA1-null mice ([7]; propofol 50% topical): completely absent | Duration of pain-related (nocifensive) behavior ([7]; wild-type mice, propofol 50% topical to nasal epithelium, 2-min period): ≈ 40 s | Flexor reflex muscle activity in TRPA1+/− mice [8]: evoked reflex muscle activity | Flexor reflex muscle activity in TRPA1-null mice [8]: no responses | Reduction in half-maximal voltage (V1/2) for TRPV1 activation ([9]; n=4-5): 10.5 mV | Effect of i.v. GAs on TRPV1 channels ([9]; −50 mV): without effect
